Laboratory results: ChEMBL document CHEMBL4507265 (2021)

Experiments:
[1] = molecular target: Mitogen-activated protein kinase kinase kinase 3 (Homo sapiens) (UniProt Q99759); settings: Compound concentration 1000.0 nM
[2] = molecular target: 5-hydroxytryptamine receptor 2C (Homo sapiens) (UniProt P28335); settings: Compound concentration 10.0 uM
[3] = molecular target: Mitogen-activated protein kinase kinase kinase 2 (Homo sapiens) (UniProt Q9Y2U5); settings: Compound concentration 1000.0 nM
[4] = molecular target: Interferon-induced, double-stranded RNA-activated protein kinase (Homo sapiens) (UniProt P19525); settings: Compound concentration 1000.0 nM
[5] = molecular target: LIM domain kinase 1 (Homo sapiens) (UniProt P53667); settings: Compound concentration 1000.0 nM
[6] = molecular target: Delta-type opioid receptor (Homo sapiens) (UniProt P41143); settings: Compound concentration 10.0 uM
[7] = molecular target: Ephrin type-A receptor 2 (Homo sapiens) (UniProt P29317); settings: Compound concentration 1000.0 nM
[8] = molecular target: T1, Alpha-1D adrenergic receptor (Homo sapiens) (UniProt P25100); settings: Compound concentration 10.0 uM
T1 sequence (whole entry): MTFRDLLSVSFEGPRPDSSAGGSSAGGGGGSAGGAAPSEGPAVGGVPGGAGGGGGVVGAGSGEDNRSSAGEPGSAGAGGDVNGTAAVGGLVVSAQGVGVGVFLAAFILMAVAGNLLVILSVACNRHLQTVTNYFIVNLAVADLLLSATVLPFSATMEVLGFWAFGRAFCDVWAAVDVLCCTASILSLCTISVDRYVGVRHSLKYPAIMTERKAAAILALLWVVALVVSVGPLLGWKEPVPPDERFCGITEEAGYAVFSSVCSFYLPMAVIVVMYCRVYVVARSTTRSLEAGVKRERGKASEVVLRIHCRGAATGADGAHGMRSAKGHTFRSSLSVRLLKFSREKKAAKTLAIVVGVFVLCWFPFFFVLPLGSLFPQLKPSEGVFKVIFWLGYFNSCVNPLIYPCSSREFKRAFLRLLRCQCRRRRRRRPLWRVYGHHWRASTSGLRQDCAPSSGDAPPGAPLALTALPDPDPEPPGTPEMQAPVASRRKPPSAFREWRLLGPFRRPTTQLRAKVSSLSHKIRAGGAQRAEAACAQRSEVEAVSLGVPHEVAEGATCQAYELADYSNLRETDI

[9] = molecular target: Muscarinic acetylcholine receptor M5 (Homo sapiens) (UniProt P08912); settings: Compound concentration 10.0 uM
[10] = molecular target: Interleukin-1 receptor-associated kinase 3 (Homo sapiens) (UniProt Q9Y616); settings: Compound concentration 1000.0 nM
[11] = molecular target: Mast/stem cell growth factor receptor Kit (Homo sapiens) (UniProt P10721); settings: Compound concentration 1000.0 nM
[12] = molecular target: Casein kinase I isoform gamma-2 (Homo sapiens) (UniProt P78368); settings: Compound concentration 1000.0 nM
[13] = molecular target: Serine/threonine-protein kinase/endoribonuclease IRE1 (Homo sapiens) (UniProt O75460); settings: Compound concentration 1000.0 nM
[14] = molecular target: Wee1-like protein kinase 2 (Homo sapiens) (UniProt P0C1S8); settings: Compound concentration 1000.0 nM
[15] = molecular target: Serine/threonine-protein kinase tousled-like 2 (Homo sapiens) (UniProt Q86UE8); settings: Compound concentration 1000.0 nM
[16] = molecular target: Dual specificity mitogen-activated protein kinase kinase 7 (Homo sapiens) (UniProt O14733); settings: Compound concentration 1000.0 nM
[17] = molecular target: Protein kinase C epsilon type (Homo sapiens) (UniProt Q02156); settings: Compound concentration 1000.0 nM
[18] = molecular target: MAP/microtubule affinity-regulating kinase 3 (Homo sapiens) (UniProt P27448); settings: Compound concentration 1000.0 nM
[19] = molecular target: Platelet-derived growth factor receptor alpha (Homo sapiens) (UniProt P16234); settings: Compound concentration 1000.0 nM
[20] = molecular target: Eukaryotic translation initiation factor 2-alpha kinase 1 (Homo sapiens) (UniProt Q9BQI3); settings: Compound concentration 1000.0 nM
[21] = molecular target: Phosphatidylinositol 4-kinase beta (Homo sapiens) (UniProt Q9UBF8); settings: Compound concentration 1000.0 nM
[22] = molecular target: Calcium/calmodulin-dependent protein kinase type II subunit delta (Homo sapiens) (UniProt Q13557); settings: Compound concentration 1000.0 nM
[23] = molecular target: Serine/threonine-protein kinase MAK (Homo sapiens) (UniProt P20794); settings: Compound concentration 1000.0 nM
[24] = molecular target: Tyrosine-protein kinase SYK (Homo sapiens) (UniProt P43405); settings: Compound concentration 1000.0 nM
[25] = system: Phosphatidylinositol 4,5-bisphosphate 3-kinase catalytic subunit alpha isoform (Homo sapiens), P42336 [I800L]; settings: Compound concentration 1000.0 nM
[26] = molecular target: Misshapen-like kinase 1 (Homo sapiens) (UniProt Q8N4C8); settings: Compound concentration 1000.0 nM
[27] = molecular target: Muscarinic acetylcholine receptor M4 (Homo sapiens) (UniProt P08173); settings: Compound concentration 10.0 uM
[28] = molecular target: Testis-specific serine/threonine-protein kinase 1 (Homo sapiens) (UniProt Q9BXA7); settings: Compound concentration 1000.0 nM
[29] = molecular target: Tyrosine-protein kinase JAK1 (Homo sapiens) (UniProt P23458); settings: Compound concentration 1000.0 nM
[30] = molecular target: Serine/threonine-protein kinase 26 (Homo sapiens) (UniProt Q9P289); settings: Compound concentration 1000.0 nM
[31] = system: Receptor-type tyrosine-protein kinase FLT3 (Homo sapiens), P36888 [D835V]; settings: Compound concentration 1000.0 nM
[32] = system: Phosphatidylinositol 4,5-bisphosphate 3-kinase catalytic subunit alpha isoform (Homo sapiens), P42336 [E545A]; settings: Compound concentration 1000.0 nM
[33] = molecular target: Phosphatidylinositol 5-phosphate 4-kinase type-2 gamma (Homo sapiens) (UniProt Q8TBX8); settings: Compound concentration 1000.0 nM
[34] = molecular target: Serine/threonine-protein kinase TAO1 (Homo sapiens) (UniProt Q7L7X3); settings: Compound concentration 1000.0 nM
[35] = molecular target: Dual specificity protein kinase CLK1 (Homo sapiens) (UniProt P49759); settings: Compound concentration 1000.0 nM
[36] = molecular target: Serine/threonine-protein kinase haspin (Homo sapiens) (UniProt Q8TF76); settings: Compound concentration 1000.0 nM
[37] = molecular target: Cyclin-dependent kinase 4 (Homo sapiens) (UniProt P11802); settings: Compound concentration 1000.0 nM

Chain of Phosphatidylinositol 4-kinase beta (Homo sapiens) (Q9UBF8 2-816 limits assumed): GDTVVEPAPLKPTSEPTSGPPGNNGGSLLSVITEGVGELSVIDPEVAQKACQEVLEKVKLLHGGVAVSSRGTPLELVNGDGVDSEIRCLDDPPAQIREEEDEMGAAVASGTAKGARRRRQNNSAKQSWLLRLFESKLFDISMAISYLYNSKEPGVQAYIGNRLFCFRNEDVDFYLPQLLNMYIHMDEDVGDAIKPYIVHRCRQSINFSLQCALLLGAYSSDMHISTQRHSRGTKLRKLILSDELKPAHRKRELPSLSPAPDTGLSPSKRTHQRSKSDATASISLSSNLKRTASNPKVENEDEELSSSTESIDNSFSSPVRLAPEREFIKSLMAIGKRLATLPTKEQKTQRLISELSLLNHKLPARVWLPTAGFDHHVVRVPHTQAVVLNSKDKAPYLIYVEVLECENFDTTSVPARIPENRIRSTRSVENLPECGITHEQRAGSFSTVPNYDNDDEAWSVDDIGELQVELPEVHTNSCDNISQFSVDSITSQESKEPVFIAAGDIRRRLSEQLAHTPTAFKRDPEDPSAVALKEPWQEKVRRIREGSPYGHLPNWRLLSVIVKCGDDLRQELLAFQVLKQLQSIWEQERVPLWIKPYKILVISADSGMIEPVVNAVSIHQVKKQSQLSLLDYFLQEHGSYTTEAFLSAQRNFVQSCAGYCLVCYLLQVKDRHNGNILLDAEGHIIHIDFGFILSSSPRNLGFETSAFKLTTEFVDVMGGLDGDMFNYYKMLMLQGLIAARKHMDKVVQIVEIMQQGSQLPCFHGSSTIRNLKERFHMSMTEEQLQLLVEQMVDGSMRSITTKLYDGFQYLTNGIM
Chain of Protein kinase C epsilon type (Homo sapiens) (Q02156 whole entry): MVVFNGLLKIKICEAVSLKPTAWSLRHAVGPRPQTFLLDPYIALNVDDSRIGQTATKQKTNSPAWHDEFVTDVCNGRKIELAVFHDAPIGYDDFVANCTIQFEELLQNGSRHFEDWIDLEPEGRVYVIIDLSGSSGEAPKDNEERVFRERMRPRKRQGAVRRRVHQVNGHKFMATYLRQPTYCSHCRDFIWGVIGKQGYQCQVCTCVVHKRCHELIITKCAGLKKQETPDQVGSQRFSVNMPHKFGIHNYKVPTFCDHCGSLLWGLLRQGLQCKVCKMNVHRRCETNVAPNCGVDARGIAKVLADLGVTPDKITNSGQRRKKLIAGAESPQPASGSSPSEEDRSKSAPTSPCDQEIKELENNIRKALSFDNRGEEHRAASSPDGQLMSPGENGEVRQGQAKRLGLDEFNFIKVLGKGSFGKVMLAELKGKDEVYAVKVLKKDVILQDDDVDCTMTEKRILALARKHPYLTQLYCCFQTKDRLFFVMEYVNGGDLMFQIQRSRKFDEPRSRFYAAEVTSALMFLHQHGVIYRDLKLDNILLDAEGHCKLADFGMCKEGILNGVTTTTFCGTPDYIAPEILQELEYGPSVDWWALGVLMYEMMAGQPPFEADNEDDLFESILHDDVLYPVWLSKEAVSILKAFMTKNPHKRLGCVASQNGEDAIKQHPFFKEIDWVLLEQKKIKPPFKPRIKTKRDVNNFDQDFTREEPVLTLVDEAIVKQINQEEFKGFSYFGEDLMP
Chain of Muscarinic acetylcholine receptor M5 (Homo sapiens) (P08912 whole entry): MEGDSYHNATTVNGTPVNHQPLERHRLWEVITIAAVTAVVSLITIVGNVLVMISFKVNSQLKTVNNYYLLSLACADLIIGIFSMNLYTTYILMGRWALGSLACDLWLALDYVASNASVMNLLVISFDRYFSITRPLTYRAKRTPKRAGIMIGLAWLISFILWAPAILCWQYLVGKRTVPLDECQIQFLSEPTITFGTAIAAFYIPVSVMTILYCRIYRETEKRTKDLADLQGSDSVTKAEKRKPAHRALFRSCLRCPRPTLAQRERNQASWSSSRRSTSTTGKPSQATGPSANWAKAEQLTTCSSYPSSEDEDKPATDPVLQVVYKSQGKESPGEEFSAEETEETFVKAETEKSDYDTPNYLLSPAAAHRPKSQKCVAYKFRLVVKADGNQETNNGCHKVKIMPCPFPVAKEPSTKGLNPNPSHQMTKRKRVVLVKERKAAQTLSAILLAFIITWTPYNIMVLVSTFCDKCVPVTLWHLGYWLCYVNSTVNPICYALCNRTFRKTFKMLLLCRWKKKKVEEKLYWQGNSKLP
Chain of Phosphatidylinositol 4,5-bisphosphate 3-kinase catalytic subunit alpha isoform (Homo sapiens), P42336 [E545A] (P42336 whole entry E545A, canonical isoform): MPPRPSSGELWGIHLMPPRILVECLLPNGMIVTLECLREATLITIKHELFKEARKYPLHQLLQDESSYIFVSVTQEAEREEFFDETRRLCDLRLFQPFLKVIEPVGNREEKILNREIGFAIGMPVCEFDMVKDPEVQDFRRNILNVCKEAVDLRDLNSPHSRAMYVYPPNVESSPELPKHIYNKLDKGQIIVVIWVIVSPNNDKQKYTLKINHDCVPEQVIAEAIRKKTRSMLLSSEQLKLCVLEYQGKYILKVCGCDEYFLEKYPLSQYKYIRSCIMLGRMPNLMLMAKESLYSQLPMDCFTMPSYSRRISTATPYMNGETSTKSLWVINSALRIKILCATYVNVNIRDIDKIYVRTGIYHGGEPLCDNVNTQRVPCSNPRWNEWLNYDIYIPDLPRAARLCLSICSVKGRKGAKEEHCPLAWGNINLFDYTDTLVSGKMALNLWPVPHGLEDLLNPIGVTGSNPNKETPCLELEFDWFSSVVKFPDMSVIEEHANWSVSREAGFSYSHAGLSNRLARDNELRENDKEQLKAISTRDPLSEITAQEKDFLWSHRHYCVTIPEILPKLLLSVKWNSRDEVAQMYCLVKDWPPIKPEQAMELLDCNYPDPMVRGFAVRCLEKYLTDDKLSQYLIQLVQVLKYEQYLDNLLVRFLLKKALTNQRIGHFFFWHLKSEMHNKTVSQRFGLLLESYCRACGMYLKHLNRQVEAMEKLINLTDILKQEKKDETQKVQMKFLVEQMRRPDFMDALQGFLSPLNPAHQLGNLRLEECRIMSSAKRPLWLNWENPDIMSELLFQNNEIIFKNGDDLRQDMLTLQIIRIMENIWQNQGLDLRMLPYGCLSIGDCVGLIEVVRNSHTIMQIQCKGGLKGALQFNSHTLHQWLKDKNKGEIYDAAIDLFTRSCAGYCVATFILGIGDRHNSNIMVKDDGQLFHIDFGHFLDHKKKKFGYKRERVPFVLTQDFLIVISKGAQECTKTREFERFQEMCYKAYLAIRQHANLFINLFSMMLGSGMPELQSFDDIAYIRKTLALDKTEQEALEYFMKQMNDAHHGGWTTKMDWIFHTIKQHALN
Chain of Casein kinase I isoform gamma-2 (Homo sapiens) (P78368 whole entry, looked up, canonical isoform): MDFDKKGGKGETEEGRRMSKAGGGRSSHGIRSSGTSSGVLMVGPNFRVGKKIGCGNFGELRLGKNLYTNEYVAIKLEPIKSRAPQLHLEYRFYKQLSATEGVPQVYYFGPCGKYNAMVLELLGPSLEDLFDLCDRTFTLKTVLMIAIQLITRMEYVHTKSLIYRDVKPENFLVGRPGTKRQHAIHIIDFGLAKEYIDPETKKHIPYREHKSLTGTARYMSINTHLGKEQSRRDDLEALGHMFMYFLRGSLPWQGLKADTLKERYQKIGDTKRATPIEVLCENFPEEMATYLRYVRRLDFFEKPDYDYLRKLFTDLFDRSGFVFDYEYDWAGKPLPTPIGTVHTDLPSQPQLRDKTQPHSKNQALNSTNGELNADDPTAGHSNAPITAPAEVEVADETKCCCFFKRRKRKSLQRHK
Chain of Delta-type opioid receptor (Homo sapiens) (P41143 whole entry): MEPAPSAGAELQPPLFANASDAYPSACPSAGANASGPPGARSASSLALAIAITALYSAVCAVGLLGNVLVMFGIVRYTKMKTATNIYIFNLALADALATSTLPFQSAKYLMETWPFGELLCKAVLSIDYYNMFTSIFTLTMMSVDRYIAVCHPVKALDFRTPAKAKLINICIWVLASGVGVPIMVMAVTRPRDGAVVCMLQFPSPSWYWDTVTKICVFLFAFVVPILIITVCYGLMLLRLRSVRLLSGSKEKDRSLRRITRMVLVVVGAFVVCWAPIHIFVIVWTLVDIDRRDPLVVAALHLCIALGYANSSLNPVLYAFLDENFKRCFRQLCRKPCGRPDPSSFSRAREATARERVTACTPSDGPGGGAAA
Chain of Testis-specific serine/threonine-protein kinase 1 (Homo sapiens) (Q9BXA7 whole entry): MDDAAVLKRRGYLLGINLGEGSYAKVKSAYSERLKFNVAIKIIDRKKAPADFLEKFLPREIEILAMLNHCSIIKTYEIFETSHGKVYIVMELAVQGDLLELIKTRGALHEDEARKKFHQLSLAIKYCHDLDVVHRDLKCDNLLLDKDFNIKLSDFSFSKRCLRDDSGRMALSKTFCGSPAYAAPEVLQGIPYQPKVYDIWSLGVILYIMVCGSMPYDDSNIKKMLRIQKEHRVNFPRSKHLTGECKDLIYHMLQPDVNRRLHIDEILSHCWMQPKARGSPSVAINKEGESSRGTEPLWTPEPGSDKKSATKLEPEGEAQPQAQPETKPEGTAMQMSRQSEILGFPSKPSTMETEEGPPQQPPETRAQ
Chain of Serine/threonine-protein kinase 26 (Homo sapiens) (Q9P289 2-416 limits assumed): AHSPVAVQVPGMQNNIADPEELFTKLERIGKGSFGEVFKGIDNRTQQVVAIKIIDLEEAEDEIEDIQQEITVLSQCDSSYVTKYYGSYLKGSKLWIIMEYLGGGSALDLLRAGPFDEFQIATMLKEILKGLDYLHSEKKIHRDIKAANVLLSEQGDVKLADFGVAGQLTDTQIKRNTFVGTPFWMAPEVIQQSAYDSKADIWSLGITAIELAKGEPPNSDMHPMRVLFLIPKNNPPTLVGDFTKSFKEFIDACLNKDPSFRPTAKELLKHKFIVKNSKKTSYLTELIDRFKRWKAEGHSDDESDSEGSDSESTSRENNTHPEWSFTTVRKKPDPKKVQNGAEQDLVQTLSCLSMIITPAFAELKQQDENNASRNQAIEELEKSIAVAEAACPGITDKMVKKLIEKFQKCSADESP
Chain of Phosphatidylinositol 4,5-bisphosphate 3-kinase catalytic subunit alpha isoform (Homo sapiens), P42336 [I800L] (P42336 whole entry I800L, canonical isoform): as the sequence (P42336 whole entry E545A, canonical isoform) above, with A545E, I800L counted along it

## NS(=O)(=O)c1cc(NC(=O)Cc2ccccc2)ccc1Oc1cccc(Cl)c1 [BAY-1797]
[1]
  residual activity: 71%
[2]
  inhibition: 55.4%
[3]
  residual activity: 84%
[4]
  residual activity: 80%
[5]
  residual activity: 87%
[6]
  inhibition: 20.5%
[7]
  residual activity: 91%
[8]
  inhibition: 2.32%
[9]
  inhibition: 16.7%
[10]
  residual activity: 87%
[11]
  residual activity: 89%
[12]
  residual activity: 100%
[13]
  residual activity: 73%
[14]
  residual activity: 78%
[15]
  residual activity: 100%
[16]
  residual activity: 91%
[17]
  residual activity: 87%
[18]
  residual activity: 100%
[19]
  residual activity: 80%
[20]
  residual activity: 83%
[21]
  residual activity: 55%
[22]
  residual activity: 97%
[23]
  residual activity: 100%
[24]
  residual activity: 66%
[25]
  residual activity: 82%
[26]
  residual activity: 90%
[27]
  inhibition: 10.2%
[28]
  residual activity: 100%
[29]
  residual activity: 87%
[30]
  residual activity: 99%
[31]
  residual activity: 86%
[32]
  residual activity: 69%
[33]
  residual activity: 100%
[34]
  residual activity: 93%
[35]
  residual activity: 67%
[36]
  residual activity: 100%
[37]
  residual activity: 74%

## NS(=O)(=O)c1cc(NC(=O)C2(c3ccccc3Cl)CC2)ccc1Oc1cccc(Cl)c1 [BAY-207]
[1]
  residual activity: 100%
[2]
  inhibition: 19.5%
[3]
  residual activity: 100%
[4]
  residual activity: 100%
[5]
  residual activity: 100%
[6]
  inhibition: 41.6%
[7]
  residual activity: 80%
[8]
  inhibition: 6.88%
[9]
  inhibition: 14.7%
[10]
  residual activity: 75%
[11]
  residual activity: 90%
[12]
  residual activity: 82%
[13]
  residual activity: 61%
[14]
  residual activity: 74%
[15]
  residual activity: 100%
[16]
  residual activity: 100%
[17]
  residual activity: 65%
[18]
  residual activity: 92%
[19]
  residual activity: 81%
[20]
  residual activity: 95%
[21]
  residual activity: 75%
[22]
  residual activity: 100%
[23]
  residual activity: 89%
[24]
  residual activity: 70%
[25]
  residual activity: 100%
[26]
  residual activity: 86%
[27]
  inhibition: -1.95%
[28]
  residual activity: 100%
[29]
  residual activity: 76%
[30]
  residual activity: 100%
[31]
  residual activity: 100%
[32]
  residual activity: 82%
[33]
  residual activity: 62%
[34]
  residual activity: 91%
[35]
  residual activity: 59%
[36]
  residual activity: 96%
[37]
  residual activity: 95%
